From US12384753B2, “17-beta-hydroxysteroid dehydrogenase type 13 inhibitors and methods of use thereof” (Enanta Pharmaceuticals, Inc., priority 2021, dated 2025) come the findings set out here.

A word on the IC50: it is the midpoint of a concentration-inhibition curve.

Sequence of Recombinant human HSD17B13 (Q7Z5P4 20-300): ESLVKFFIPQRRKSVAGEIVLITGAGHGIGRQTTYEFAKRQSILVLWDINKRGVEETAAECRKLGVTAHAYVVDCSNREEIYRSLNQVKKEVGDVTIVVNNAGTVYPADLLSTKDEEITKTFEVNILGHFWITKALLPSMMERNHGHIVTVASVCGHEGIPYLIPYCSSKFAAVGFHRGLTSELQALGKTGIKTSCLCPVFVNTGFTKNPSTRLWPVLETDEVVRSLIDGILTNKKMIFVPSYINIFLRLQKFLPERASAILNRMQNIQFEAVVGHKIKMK

This test addresses Recombinant human HSD17B13 (Homo sapiens (Human), UniProt Q7Z5P4). In words: HSD17B13 rapid-fire mass spectrometry assay (RF/MS assay). In kind it is biochemical. Particulars: inhibition of HSD17B13; LTB4 10 μM, NAD+ 0.5 mM, RT 3 h; IC50 ranges A-E. The essentials:
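Product 12-oxo-LTB4 and substrate LTB4 quantified by RapidFire triple-quad MS in negative mode, giving percent conversion. Reaction: 80 nM recombinant hHSD17B13, 10 μM LTB4, 0.5 mM NAD+, compound up to 100 μM, pH 7.5, RT, 3 h. Variable-slope fit gave IC50; run in duplicate.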
With `COc1cc(C(=O)O)c(F)cc1NS(=O)(=O)c1csc(-c2ccc(C3=CCC(C)(C)CC3)cc2C(C)C)n1` [Example 557], the IC50 lay in the range of 100 to 500 nM.

As to `COc1cc(C(=O)O)c(F)cc1NS(=O)(=O)c1csc(-c2ccc(C3CCC(C)(C)CC3)cc2-c2ccc(F)cc2)n1` [Example 558], the IC50 lay within 100 to 500 nM.

Consider `COc1cc(C(=O)O)c(F)cc1NS(=O)(=O)c1csc(-c2ccc(C3CCC(C)(C)CC3)cc2C)n1` [Example 559], for which the IC50 was less than 100 nM.

Turning to `COc1cc(C(=O)O)c(F)cc1NS(=O)(=O)c1csc(-c2ccc(C3CCC(C)(C)CC3)cc2C(C)C)n1` [Example 560], the IC50 lay within 100 to 500 nM.

Take `COc1cc(C(=O)O)c(F)cc1NS(=O)(=O)c1csc(-c2ccc(C(F)(F)F)nc2C2=CCC(C)(C)CC2)n1` [Example 561]: the IC50 is 1000 to 100000 nM.

Consider `COc1cc(C(=O)O)c(F)cc1NS(=O)(=O)c1csc(-c2ccc(C3=CCC(C)(C)CC3)c(F)c2C)n1` [Example 562], for which the IC50 fell in the range of 100 to 500 nM.

For the compound `CCc1cc(C2=CCC(C)(C)CC2)ccc1-c1nc(S(=O)(=O)Nc2cc(F)c(C(=O)O)cc2OC)cs1` [Example 563], the IC50 was less than 100 nM.

With `COc1cc(C(=O)O)c(F)cc1NS(=O)(=O)c1csc(-c2ccc(C3=CCC(C)(C)CC3)c(OC(C)C)c2F)n1` [Example 564], the IC50 was 100 to 500 nM.

`COc1cc(C(=O)O)c(F)cc1NS(=O)(=O)c1csc(-c2ccc(C3=CCC(C)(C)CC3)cn2)n1` [Example 565]: the IC50 is 100 to 500 nM.

Take `COc1cc(C(=O)O)c(F)cc1NS(=O)(=O)c1csc(-c2ccc(C3CCC(C)(C)CC3)c(F)c2C)n1` [Example 566]: the IC50 is less than 100 nM.

As for `COc1cc(C(=O)O)c(F)cc1NS(=O)(=O)c1csc(-c2ccc(C3CCC(C)(C)CC3)c(OC(C)C)c2F)n1` [Example 567], the IC50 is less than 100 nM.

Regarding `CCOc1c(C2=CCC(C)(C)CC2)ccc(-c2nc(S(=O)(=O)Nc3cc(F)c(C(=O)O)cc3OC)cs2)c1F` [Example 568], the IC50 was less than 100 nM.

Turning to `COc1cc(C(=O)O)c(F)cc1NS(=O)(=O)c1csc(-c2ccc(C3=CCC(C)(C)CC3)c(C)c2F)n1` [Example 569], the IC50 is less than 100 nM.

On to `CCOc1c(C2CCC(C)(C)CC2)ccc(-c2nc(S(=O)(=O)Nc3cc(F)c(C(=O)O)cc3OC)cs2)c1F` [Example 570], for which the IC50 is less than 100 nM.

As for `COc1cc(C(=O)O)c(F)cc1NS(=O)(=O)c1csc(-c2ccc(C3CCC(C)(C)CC3)c(C)c2F)n1` [Example 571], the IC50 is less than 100 nM.

Consider `CCc1cc(C2CCC(C)(C)CC2)ccc1-c1nc(S(=O)(=O)Nc2cc(F)c(C(=O)O)cc2OC)cs1` [Example 572], for which the IC50 is less than 100 nM.

As to `COc1cc(C(=O)O)c(F)cc1NS(=O)(=O)c1csc(-c2ccc(C3CCC(C)(C)CC3)cn2)n1` [Example 573], the IC50 lay within 100 to 500 nM.

With `CC[C@H]1CC[C@H](c2ccc(-c3nc(S(=O)(=O)Nc4cc5c(cc4OC)C(=O)NC5)cs3)cc2)CC1` [Example 574], the IC50 fell in the range of 1000 to 100000 nM.

For the compound `CC[C@H]1CC[C@H](c2ccc(-c3nc(S(=O)(=O)Nc4cc5nc[nH]c(=O)c5cc4OC)cs3)cc2)CC1` [Example 575], the IC50 is 1000 to 100000 nM.

Turning to `CCCOc1c(C2=CCC(C)(C)CC2)ccc(-c2nc(S(=O)(=O)Nc3cc(F)c(C(=O)O)cc3OC)cs2)c1F` [Example 576], the IC50 was 100 to 500 nM.

Turning to `COCCOc1c(C2=CCC(C)(C)CC2)ccc(-c2nc(S(=O)(=O)Nc3cc(F)c(C(=O)O)cc3OC)cs2)c1F` [Example 577], the IC50 lay within 100 to 500 nM.

Turning to `CCCCOc1c(C2=CCC(C)(C)CC2)ccc(-c2nc(S(=O)(=O)Nc3cc(F)c(C(=O)O)cc3OC)cs2)c1F` [Example 578], the IC50 fell in the range of 100 to 500 nM.

For the compound `CCCOc1c(C2CCC(C)(C)CC2)ccc(-c2nc(S(=O)(=O)Nc3cc(F)c(C(=O)O)cc3OC)cs2)c1F` [Example 579], the IC50 was in the range of 100 to 500 nM.

Take `COCCOc1c(C2CCC(C)(C)CC2)ccc(-c2nc(S(=O)(=O)Nc3cc(F)c(C(=O)O)cc3OC)cs2)c1F` [Example 580]: the IC50 was 100 to 500 nM.

With `CCCCOc1c(C2CCC(C)(C)CC2)ccc(-c2nc(S(=O)(=O)Nc3cc(F)c(C(=O)O)cc3OC)cs2)c1F` [Example 581], the IC50 fell in the range of 100 to 500 nM.

`COc1cc(C(=O)O)c(F)cc1NS(=O)(=O)c1csc(-c2ccc(C3=CCC(C)(C)CC3)c(F)c2C(F)F)n1` [Example 582]: the IC50 was less than 100 nM.

As to `COc1cc(C(=O)O)c(F)cc1NS(=O)(=O)c1csc(-c2ccc(C3CCC(C)(C)CC3)c(F)c2C(F)F)n1` [Example 583], the IC50 is less than 100 nM.

In the case of `COc1cc(C(=O)O)c(F)cc1NS(=O)(=O)c1csc(-c2ccc(C3=CCC(C(C)C)CC3)c(OC(C)C)c2F)n1` (stereo not shown) [Example 584], the IC50 is less than 100 nM.

As to `CCCCOc1c(C2=CCC(C(C)C)CC2)ccc(-c2nc(S(=O)(=O)Nc3cc(F)c(C(=O)O)cc3OC)cs2)c1F` (stereo not shown) [Example 585], the IC50 lay within 100 to 500 nM.

In the case of `COc1cc(C(=O)O)c(F)cc1NS(=O)(=O)c1csc(-c2ccc([C@H]3CC[C@@H](C(C)C)CC3)c(OC(C)C)c2F)n1` [Example 586], the IC50 fell in the range of 100 to 500 nM.

On to `COc1cc(C(=O)O)c(F)cc1NS(=O)(=O)c1csc(-c2ccc([C@H]3CC[C@H](C(C)C)CC3)c(OC(C)C)c2F)n1` [Example 587], for which the IC50 was less than 100 nM.

Turning to `CCCCOc1c(F)c(-c2nc(S(=O)(=O)Nc3cc(F)c(C(=O)O)cc3OC)cs2)ccc1[C@H]1CC[C@@H](C(C)C)CC1` [Example 588], the IC50 was in the range of 100 to 500 nM.

In the case of `CCCCOc1c(F)c(-c2nc(S(=O)(=O)Nc3cc(F)c(C(=O)O)cc3OC)cs2)ccc1[C@H]1CC[C@H](C(C)C)CC1` [Example 589], the IC50 fell in the range of 100 to 500 nM.

Regarding `COc1cc(C(=O)O)c(F)cc1NS(=O)(=O)c1csc(-c2ccc(C3=CCC(C)(C)CC3)cc2C(F)F)n1` [Example 590], the IC50 was less than 100 nM.

`COc1cc(C(=O)O)c(F)cc1NS(=O)(=O)c1csc(-c2ccc(C3CCC(C)(C)CC3)cc2C(F)F)n1` [Example 591]: the IC50 was less than 100 nM.

Turning to `COc1cc(C(=O)O)c(F)cc1NS(=O)(=O)c1csc(-c2ccc(C3CC4CCC3C4)cc2)n1` (stereo not shown) [Example 592], the IC50 is 100 to 500 nM.

For the compound `COc1cc(C(=O)O)c(F)cc1NS(=O)(=O)c1csc(-c2ccc(C3=CCC(C(C)(C)C)CC3)c(OC(C)C)c2F)n1` (stereo not shown) [Example 593], the IC50 was less than 100 nM.

With `COc1cc(C(=O)O)c(F)cc1NS(=O)(=O)c1csc(-c2ccc(C3=CCC(C(C)(C)C)CC3)c(F)c2C)n1` (stereo not shown) [Example 594], the IC50 is less than 100 nM.

As to `COc1cc(C(=O)O)c(F)cc1NS(=O)(=O)c1csc(-c2ccc([C@H]3CC[C@@H](C(C)(C)C)CC3)c(F)c2C)n1` [Example 595], the IC50 lay within 100 to 500 nM.

In the case of `COc1cc(C(=O)O)c(F)cc1NS(=O)(=O)c1csc(-c2ccc([C@H]3CC[C@H](C(C)(C)C)CC3)c(F)c2C)n1` [Example 596], the IC50 is less than 100 nM.

On to `COc1cc(C(=O)O)c(F)cc1NS(=O)(=O)c1csc(-c2ccc([C@H]3CC[C@@H](C(C)(C)C)CC3)c(OC(C)C)c2F)n1` [Example 597], for which the IC50 is less than 100 nM.

For the compound `COc1cc(C(=O)O)c(F)cc1NS(=O)(=O)c1csc(-c2ccc([C@H]3CC[C@H](C(C)(C)C)CC3)c(OC(C)C)c2F)n1` [Example 598], the IC50 lay in the range of 100 to 500 nM.

Turning to `COc1cc(C(=O)O)c(F)cc1NS(=O)(=O)c1csc(-c2ccc(C3=CCC(C(F)(F)F)CC3)c(F)c2C)n1` (stereo not shown) [Example 599], the IC50 is less than 100 nM.

Consider `COc1cc(C(=O)O)c(F)cc1NS(=O)(=O)c1csc(-c2ccc(C3=CCC(C(F)(F)F)CC3)c(OC)c2F)n1` (stereo not shown) [Example 600], for which the IC50 is less than 100 nM.

`COc1cc(C(=O)O)c(F)cc1NS(=O)(=O)c1csc(-c2ccc(C3=CCC(C(F)(F)F)CC3)cc2C(F)(F)F)n1` (stereo not shown) [Example 601]: the IC50 was less than 100 nM.

As to `COc1cc(C(=O)O)c(F)cc1NS(=O)(=O)c1csc(-c2ccc([C@H]3CC[C@@H](C(F)(F)F)CC3)c(F)c2C)n1` [Example 602], the IC50 was less than 100 nM.

As to `COc1cc(C(=O)O)c(F)cc1NS(=O)(=O)c1csc(-c2ccc([C@H]3CC[C@H](C(F)(F)F)CC3)c(F)c2C)n1` [Example 603], the IC50 is less than 100 nM.

As to `COc1cc(C(=O)O)c(F)cc1NS(=O)(=O)c1csc(-c2ccc([C@H]3CC[C@H](C(F)(F)F)CC3)c(OC)c2F)n1` [Example 605], the IC50 is less than 100 nM.

`COc1cc(C(=O)O)c(F)cc1NS(=O)(=O)c1csc(-c2ccc([C@H]3CC[C@@H](C(F)(F)F)CC3)cc2C(F)(F)F)n1` [Example 606]: the IC50 was less than 100 nM.

For `COc1cc(C(=O)O)c(F)cc1NS(=O)(=O)c1csc(-c2ccc([C@H]3CC[C@H](C(F)(F)F)CC3)cc2C(F)(F)F)n1` [Example 607], the IC50 was less than 100 nM.

As to `COc1cc(C(=O)O)ccc1NS(=O)(=O)c1csc(-c2ccc([C@H]3CC[C@@H](C(F)(F)F)CC3)cc2)n1` [Example 608], the IC50 lay within 100 to 500 nM.

`COc1cc(C(=O)O)ccc1NS(=O)(=O)c1coc(-c2ccc([C@H]3CC[C@@H](C(F)(F)F)CC3)cc2)n1` [Example 609]: the IC50 was less than 100 nM.

Take `COc1cc(C(=O)O)ccc1NS(=O)(=O)c1coc(-c2ccc([C@H]3CC[C@H](C(F)(F)F)CC3)cc2)n1` [Example 610]: the IC50 lay within 100 to 500 nM.

On to `COc1cc(C(=O)O)c(F)cc1NS(=O)(=O)c1cccc(-c2ccc([C@H]3CC[C@H](C(C)(C)C)CC3)cc2)c1F` [Example 612], for which the IC50 was less than 100 nM.

As for `COc1cc(C(=O)O)c(F)cc1NS(=O)(=O)c1ncc(-c2ccc(F)cc2)s1` [Example 614], the IC50 is less than 100 nM.

Turning to `CC[C@H]1CC[C@H](c2ccc(-c3cnc(S(=O)(=O)Nc4cc(F)c(C(=O)O)cc4OC)s3)cc2)CC1` [Example 615], the IC50 was in the range of 100 to 500 nM.

In the case of `COc1cc(C(=O)O)c(F)cc1NS(=O)(=O)c1ncc(-c2ccc(C3CCCCC3)cc2)s1` [Example 616], the IC50 fell in the range of 100 to 500 nM.

Take `COc1cc(C(=O)O)c(F)cc1NS(=O)(=O)c1coc(-c2ccc(C3=CCC4(CC3)OCCO4)cc2)n1` [Example 617]: the IC50 was less than 100 nM.
